Assay [1] has as its target T1, EGFR (L858R T790M C797S) (Homo sapiens, UniProt P00533, C797S/L858R/T790M).
T1 construct: purchased SignalChem E10-122VG
Nature of the assay: Biochemical EGFR inhibition assay (Caliper mobility shift), EGFR LRTMCS mutant. The conditions noted are these: inhibitory activity against EGFR LRTMCS mutant; apparent IC50; read-out: Ext Enz LRTMCS. The method in brief:
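Each enzyme was allowed to phosphorylate 10–20% of its peptide at 25° C. before EDTA (35 mM) quench. Separated substrate and product peaks were measured by mobility shift, giving apparent IC50 values.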

Assay [2] deals with phosphorylation of EGFR (Tyr1068) in NCI-H1975 cell line that harbors the EGFR L858R T790M mutations. Nature of the assay: NCI-H1975 pEGFR AlphaLISA assay. Format: cell-based. The conditions noted are these: 4-5 hours incubation, read-out: Ext pEGFR H1975. The method in brief:
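Phospho-EGFR Tyr1068 AlphaLISA readout: lysates taken from compound-treated H1975 cells (L858R T790M EGFR) after a 4-5 h exposure at 37 °C. Cells had adhered overnight beforehand. IC50 derived by plotting % pEGFR inhibition against log compound concentration.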

The mark [3] stands for this setting: Homo sapiens, NCI-H1975, inhibition of phosphorylation of mutant EGFR in NCI-H1975 cells.
Where [4] appears, read: inhibition of phosphorylation of mutant EGFR in NCI-H1975 cells.

Where two headings read alike, the source gives them in different places. A value given as a limit tells only on which side of the number the result lay.

T1 sequence (P00533 25-1210 T790M/C797S/L858R): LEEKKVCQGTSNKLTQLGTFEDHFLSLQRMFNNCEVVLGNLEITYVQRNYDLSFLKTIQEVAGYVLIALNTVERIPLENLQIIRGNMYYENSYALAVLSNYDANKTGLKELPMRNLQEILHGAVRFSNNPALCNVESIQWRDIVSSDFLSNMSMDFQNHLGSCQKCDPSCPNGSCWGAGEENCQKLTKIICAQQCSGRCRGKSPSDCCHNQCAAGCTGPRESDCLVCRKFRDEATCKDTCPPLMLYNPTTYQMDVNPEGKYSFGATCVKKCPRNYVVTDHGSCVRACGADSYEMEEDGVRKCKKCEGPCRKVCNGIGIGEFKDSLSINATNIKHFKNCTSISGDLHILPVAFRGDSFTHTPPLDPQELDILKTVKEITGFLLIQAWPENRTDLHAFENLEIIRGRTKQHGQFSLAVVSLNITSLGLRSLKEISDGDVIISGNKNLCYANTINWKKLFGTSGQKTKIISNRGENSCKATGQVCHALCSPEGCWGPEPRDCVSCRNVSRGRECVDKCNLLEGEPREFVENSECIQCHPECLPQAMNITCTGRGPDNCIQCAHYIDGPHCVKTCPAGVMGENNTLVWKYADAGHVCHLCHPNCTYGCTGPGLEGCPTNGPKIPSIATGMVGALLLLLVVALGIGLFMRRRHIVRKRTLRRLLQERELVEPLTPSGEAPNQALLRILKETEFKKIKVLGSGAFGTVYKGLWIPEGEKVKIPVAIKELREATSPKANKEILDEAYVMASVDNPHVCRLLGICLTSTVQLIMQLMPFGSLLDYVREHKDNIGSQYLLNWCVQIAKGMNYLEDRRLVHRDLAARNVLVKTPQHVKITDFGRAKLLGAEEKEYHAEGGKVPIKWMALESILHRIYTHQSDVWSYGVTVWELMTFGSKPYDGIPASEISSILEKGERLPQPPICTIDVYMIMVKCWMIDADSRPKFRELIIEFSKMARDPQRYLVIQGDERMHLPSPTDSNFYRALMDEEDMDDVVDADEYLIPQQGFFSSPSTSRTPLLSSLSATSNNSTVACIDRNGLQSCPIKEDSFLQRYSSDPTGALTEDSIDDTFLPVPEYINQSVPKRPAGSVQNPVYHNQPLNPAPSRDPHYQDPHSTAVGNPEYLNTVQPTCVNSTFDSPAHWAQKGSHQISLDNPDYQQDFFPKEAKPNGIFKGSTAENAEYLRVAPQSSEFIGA

For `C[C@@H]1[C@@H](CS(C)(=O)=O)CN1c1ccc(F)c2cc(Nc3ccnc(N4C[C@H](F)[C@H](O)C(C)(C)C4)n3)ncc12` (single isomer, unassigned) [Compound 83, (4S,5R)-5-fluoro-1-[4-({5-fluoro-8-[(2R,3S)-3-(methanesulfonylmethyl)-2-methylazetidin-1-yl]isoquinolin-3-yl}amino)pyrimidin-2-yl]-3,3-dimethylpiperidin-4-ol or (4R,5S)-5-fluoro-1-[4-({5-fluoro-8-[(2R,3S)-3-(methanesulfonylmethyl)-2-methylazetidin-1-yl]isoquinolin-3-yl}amino)pyrimidin-2-yl]-3,3-dimethylpiperidin-4-ol], the IC50 in assay [1] is not above 15 nM; in assay [2] (setting [3]), not above 10 nM.

For `CO[C@@H]1CCN(c2nccc(Nc3cc4c(F)ccc(N5C[C@H](CS(C)(=O)=O)[C@H]5C)c4cn3)n2)C[C@]1(C)F` (single isomer, unassigned) [Compound 84], the IC50 in assay [1] was not above 15 nM; in assay [2] (setting [3]), 10.1 to 20 nM.

On to `CC1(C)CN(c2nccc(Nc3cc4c(F)cc(F)c(N5CC(CS(C)(=O)=O)C5)c4cn3)n2)C[C@@H](F)[C@H]1O` (single isomer, unassigned) [Compound 86, (4S,5R)-1-[4-[[5,7-difluoro-8-[3-(methylsulfonylmethyl)azetidin-1-yl]-3-isoquinolyl]amino]pyrimidin-2-yl]-5-fluoro-3,3-dimethyl-piperidin-4-ol or (4R,5S)-1-[4-[[5,7-difluoro-8-[3-(methylsulfonylmethyl)azetidin-1-yl]-3-isoquinolyl]amino]pyrimidin-2-yl]-5-fluoro-3,3-dimethyl-piperidin-4-ol], for which the IC50 in assay [1] lay within 20.1 to 30 nM; in assay [2] (setting [3]) it was 30.1 to 50 nM.

As to `C[C@H](CO)c1ccc(N2CC(CS(C)(=O)=O)C2)c2cnc(Nc3ccnc(N4CCC5(CCO5)CC4)n3)cc12` (single isomer, unassigned) [Compound 87, (2S)-2-{8-[3-(methanesulfonylmethyl)azetidin-1-yl]-3-[(2-{1-oxa-7-azaspiro[3,5]nonan-7-yl}pyrimidin-4-yl)amino]isoquinolin-5-yl}propan-1-ol or (2R)-2-{8-[3-(methanesulfonylmethyl)azetidin-1-yl]-3-[(2-{1-oxa-7-azaspiro[3.5]nonan-7-yl}pyrimidin-4-yl)amino]isoquinolin-5-yl}propan-1-ol], the values for the IC50 in assay [1] and in assay [2] (setting [3]) were not above 15 nM and 20.1 to 30 nM, respectively.

Take `CO[C@H]1CCN(c2nccc(Nc3cc4c(C(C)C)ccc(N5C[C@H](CS(C)(=O)=O)[C@H]5C)c4cn3)n2)C[C@@H]1N` (single isomer, unassigned) [Compound 89]: the values for the IC50 in assay [1] and in assay [2] (setting [3]) were not above 15 nM and not above 10 nM, respectively.

For the molecule `C[C@@H]1[C@@H](CS(C)(=O)=O)CN1c1ccc(C2CC2)c2cc(Nc3ccnc(N4CC[C@@H](O)[C@@](C)(F)C4)n3)ncc12` (single isomer, unassigned) [Compound 90], the IC50 in assay [1] was not above 15 nM; in assay [2] (setting [3]) it was not above 10 nM.

As for `CCS(=O)(=O)CC1CN(c2ccc(C(C)C)c3cc(Nc4ccnc(N5CC[C@@H](OC)[C@@H](O)C5)n4)ncc23)C1` (single isomer, unassigned) [Compound 91, (3S,4R)-1-{4-[(8-{3-[(ethanesulfonyl)methyl]azetidin-1-yl}-5-(propan-2-yl)isoquinolin-3-yl)amino]pyrimidin-2-yl}-4-methoxypiperidin-3-ol or (3R,4S)-1-{4-[(8-{3-[(ethanesulfonyl)methyl]azetidin-1-yl}-5-(propan-2-yl)isoquinolin-3-yl)amino]pyrimidin-2-yl}-4-methoxypiperidin-3-ol], the values for the IC50 in assay [1] and in assay [2] (setting [3]) were not above 15 nM and not above 10 nM, respectively.

`CO[C@H]1CCN(c2nccc(Nc3cc4c(C(C)C)ccc(N5C[C@H](CS(C)(=O)=O)[C@H]5C)c4cn3)n2)C[C@@H]1O` (single isomer, unassigned) [Compound 92, (3S,4S)-1-(4-(5-isopropyl-8-(2R,3S)-2-methyl-3-(methylsulfonylmethyl)azetidin-1-yl)isoquinolin-3-ylamino)pyrimidin-2-yl)-4-methoxypiperidin-3-ol or (3R,4R)-1-(4-(5-isopropyl-8-((2R,3S)-2-methyl-3-(methylsulfonylmethyl)azetidin-1-yl)isoquinolin-3-ylamino)pyrimidin-2-yl)-4-methoxypiperidin-3-ol]: the IC50 in assay [1] was not above 15 nM; in assay [2] (setting [3]) it was not above 10 nM.

As to `CO[C@@H]1CCN(c2nccc(Nc3cc4c(C(C)C)ccc(N5C[C@H](CS(C)(=O)=O)[C@H]5C)c4cn3)n2)C[C@@H]1O` (single isomer, unassigned) [Compound 93, (3S,4R)-1-(4-(5-isopropyl-8-((2R,3S)-2-methyl-3-(methylsulfonylmethyl)azetidin-1-yl)isoquinolin-3-ylamino)pyrimidin-2-yl)-4-methoxypiperidin-3-ol or (3R,4S)-1-(4-(5-isopropyl-8-((2R,3S)-2-methyl-3-(methylsulfonylmethyl)azetidin-1-yl)isoquinolin-3-ylamino)pyrimidin-2-yl)-4-methoxypiperidin-3-ol], the IC50 in assay [1] was not above 15 nM; in assay [2] (setting [3]), not above 10 nM.

As to `CO[C@]1(C)CN(c2nccc(Nc3cc4c(C(C)C)ccc(N5CC(CS(C)(=O)=O)C5)c4cn3)n2)CC[C@@H]1O` (single isomer, unassigned) [Compound 94, (3R,4S)-1-[4-({8-[3-(methanesulfonylmethyl)azetidin-1-yl]-5-(propan-2-yl)isoquinolin-3-yl}amino)pyrimidin-2-yl]-3-methoxy-3-methylpiperidin-4-ol or (3S,4R)-1-[4-({8-[3-(methanesulfonylmethyl)azetidin-1-yl]-5-(propan-2-yl)isoquinolin-3-yl}amino)pyrimidin-2-yl]-3-methoxy-3-methylpiperidin-4-ol], the figures for the IC50 in assay [1] and in assay [2] (setting [3]) were not above 15 nM and 20.1 to 30 nM, respectively.

With `CO[C@]1(C)CN(c2nccc(Nc3cc4c(C(C)C)ccc(N5CC(CS(C)(=O)=O)C5)c4cn3)n2)CC[C@@H]1O` (single isomer, unassigned) [Compound 95, (3S,4R)-1-[4-({8-[3-(methanesulfonylmethyl)azetidin-1-yl]-5-(propan-2-yl)isoquinolin-3-yl}amino)pyrimidin-2-yl]-3-methoxy-3-methylpiperidin-4-ol or (3R,4S)-1-[4-({8-[3-(methanesulfonylmethyl)azetidin-1-yl]-5-(propan-2-yl)isoquinolin-3-yl}amino)pyrimidin-2-yl]-3-methoxy-3-methylpiperidin-4-ol], the values for the IC50 in assay [1] and in assay [2] (setting [4]) were 20.1 to 30 nM and 10.1 to 20 nM, respectively.

For the molecule `CO[C@H]1CN(c2nccc(Nc3cc4c(C(C)C)ccc(N5C[C@H](CS(C)(=O)=O)[C@H]5C)c4cn3)n2)CC[C@@H]1O` (single isomer, unassigned) [Compound 96, (3S,4S)-1-[4-({8-[(2R,3S)-3-(methanesulfonylmethyl)-2-methylazetidin-1-yl]-5-(propan-2-yl)isoquinolin-3-yl}amino)pyrimidin-2-yl]-3-methoxypiperidin-4-ol or (3R,4R)-1-[4-({8-[(2R,3S)-3-(methanesulfonylmethyl)-2-methylazetidin-1-yl]-5-(propan-2-yl)isoquinolin-3-yl}amino)pyrimidin-2-yl]-3-methoxypiperidin-4-ol], the IC50 in assay [1] was in the range of 20.1 to 30 nM; in assay [2] (setting [4]), 10.1 to 20 nM.

With `CO[C@H]1CN(c2nccc(Nc3cc4c(C(C)C)ccc(N5C[C@H](CS(C)(=O)=O)[C@H]5C)c4cn3)n2)CC[C@H]1O` (single isomer, unassigned) [Compound 97, (3S,4R)-1-[4-({8-[(2R,3S)-3-(methanesulfonylmethyl)-2-methylazetidin-1-yl]-5-(propan-2-yl)isoquinolin-3-yl}amino)pyrimidin-2-yl]-3-methoxypiperidin-4-ol or (3R,4S)-1-[4-({8-[(2R,3S)-3-(methanesulfonylmethyl)-2-methylazetidin-1-yl]-5-(propan-2-yl)isoquinolin-3-yl}amino)pyrimidin-2-yl]-3-methoxypiperidin-4-ol], the IC50 in assay [1] was not above 15 nM; in assay [2] (setting [3]) it was not above 10 nM.

For the molecule `CO[C@H]1CN(c2nccc(Nc3cc4c(C(C)C)ccc(N5C[C@H](CS(C)(=O)=O)[C@H]5C)c4cn3)n2)CC[C@@H]1O` (single isomer, unassigned) [Compound 98, (3R,4R)-1-[4-({8-[(2R,3S)-3-(methanesulfonylmethyl)-2-methylazetidin-1-yl]-5-(propan-2-yl)isoquinolin-3-yl}amino)pyrimidin-2-yl]-3-methoxypiperidin-4-ol or (3S,4S)-1-[4-({8-[(2R,3S)-3-(methanesulfonylmethyl)-2-methylazetidin-1-yl]-5-(propan-2-yl)isoquinolin-3-yl}amino)pyrimidin-2-yl]-3-methoxypiperidin-4-ol], the IC50 is not above 15 nM in assay [1] and 10.1 to 20 nM in assay [2] (setting [3]).

For the molecule `CO[C@@H]1CN(c2nccc(Nc3cc4c(C(C)C)ccc(N5C[C@H](CS(C)(=O)=O)[C@H]5C)c4cn3)n2)CC[C@@H]1O` (single isomer, unassigned) [Compound 99, (3R,4S)-1-[4-({8-[(2R,3S)-3-(methanesulfonylmethyl)-2-methylazetidin-1-yl]-5-(propan-2-yl)isoquinolin-3-yl}amino)pyrimidin-2-yl]-3-methoxypiperidin-4-ol or (3S,4R)-1-[4-({8-[(2R,3S)-3-(methanesulfonylmethyl)-2-methylazetidin-1-yl]-5-(propan-2-yl)isoquinolin-3-yl}amino)pyrimidin-2-yl]-3-methoxypiperidin-4-ol], the IC50 in assay [1] is not above 15 nM; in assay [2] (setting [3]), 10.1 to 20 nM.

For the origin of these results see US12172983B2, “EGFR inhibitors” (Blueprint Medicines Corporation, priority 2019, dated 2024).
